For series [1] the following is noted: vitreous, human eye; cited from earlier work.
Series [2] is described as follows: Diffusion model of release from the therapeutic device reservoir through the porous structure. The text has this:
The release rate of therapeutic agent 110 through a porous body, such as a sintered porous metal structure or a porous glass structure, may be described by diffusion of the therapeutic agent 110 within the porous structure 150 with the channel parameter, and with an effective diffusion coefficient equal to the diffusion coefficient of the therapeutic agent 110 in the liquid that fills the reservoir multiplied by the Porosity and a Channel Parameter of the porous body: Release Rate=(DP/F)A(cR−cV)/L, where: cR=Concentration in reservoir cV=Concentration outside of the reservoir or in the vitreous D=Diffusion coefficient of the therapeutic agent in the reservoir solution P=Porosity of porous structure F=Channel parameter that may correspond to a tortuosity parameter of channels of porous structure A=Area of porous structure L=Thickness (length) of porous structure Cumulative Release=1−cR/cR0=1−exp((−DPA/FLVR)t), where t=time, Vr=reservoir volume
A model can be derived to describe the release rate as a function of time by relating the change of concentration in the reservoir 140 to the release rate described above. This model assumes a solution of therapeutic agent 110 where the concentration in the reservoir 140 is uniform. In addition, the concentration in the receiving fluid or vitreous is considered negligible (cV=0). Solving the differential equation and rearrangement yields the following equations describing the concentration in the reservoir as a function of time, t, and volume of the reservoir, VR, for release of a therapeutic agent 110 from a solution in a reservoir though a porous structure 150. cR=cR0 exp((−DPA/FLVR)t) and Cumulative Release=1−cR/cR0
The molecular weight of the stabilizer can be provided in 1k Dalton increments from about 1k Dalton to about 200k Daltons and provide in a Table having about 200 rows similar to Table 2. The parameters of Table 2 determined such as the half-life in the device, the equivalent volume, the equivalent diameter, and % in the device at the half-life of the therapeutic agent 110. The table may comprise a row for each molecular weight in 1k Dalton increments, and the % of stabilizer in the device compared with the therapeutic agent 110. The table may include columns for two half-lives of the therapeutic agent, three half-lives of the therapeutic agent, four half-lives of the therapeutic agent, and the corresponding percentage of stabilizer remaining in the device.
FIG. 104 and Table 3 show concentrations of therapeutic agent, stabilizer and the ratio of stabilizer to therapeutic agent in accordance with an exemplary embodiment, for example. The concentrations and rations can be determined by a person of ordinary skill in the art based on the teachings described herein. […] Additional concentrations of the therapeutic agent can be used, for example greater amounts of therapeutic agent.

The conditions of series [3]: vitreous, rabbit; cited from earlier work.
The conditions of series [4]: vitreous, monkey; cited from earlier work.
Series [5] in a line: Diffusion coefficients and equivalent size estimated from molecular weight. In kind it is physicochemical. To be noted: for Diff Coeff: Table 2, 37 C, estimated from molecular weight. The source says: If the reservoir solution is aqueous or has a viscosity similar to water, the value for the diffusion coefficient of the therapeutic agent (TA) in water at the temperature of interest may be used. […] (Molokhia et al, Exp Eye Res 2008): DTA,37C=DBSA,20C(η20C/η37C)(MWBSA/MWTA)^1/3 where MW refers to the molecular weight of either BSA or the test compound and η is the viscosity of water.
The diffusion constant of the stabilizer can be determined, for example, based on an estimate of hydrodynamic radius corresponding to the cube root of the molecular weight as described herein.
The diffusion coefficients of Table 2 can be determined based on weight for molecular weights up to about 2.5 M Daltons, and based on size above about 2.5 M Daltons.

The mark [6] stands for this setting: assumes unit density, per molecule.

Like-named read-outs stand apart in the source and are kept apart here.

As for Ranibizumab, the half-life (in general, the time needed for the level to fall by half in the phase considered) in series [1] is 220 h; in series [3] it was “approximately 3 days”; in series [4], “approximately 3 days”. The “Device Half-life relative to Ranibiz.” value in series [2] was 1.00.

Polysorbate 20: in series [5], the “Diff Coeff” value is given as 3.4E−06 cm^2/s. Further, in series [5] (listed as polysorbate 20), the “Diff Coeff” value is reported as approximately 3.4E-6 cm^2/s. In series [5] (setting [6]), the Equiv volume was 2.0 nm^3 and the equivalent diameter was approximately 1.6 nm. In addition, the “D/(Ran D)” value in series [5] (diffusion relative to Ranibizumab) was 3.39. Besides, the “relative half-life in device 100” value in series [2] (% of ranibizumab) is reported as “about 29%”. For the same substance, the “relative amount remaining in therapeutic device 100” value in series [2] (at the half-life of ranibizumab) was “about 9.5%”.

Values taken from patent US10398592B2, “Diagnostic methods and apparatus” (ForSight Vision4, Inc., priority 2011, dated 2019).
